Patent US8361780B2, “Biological system and assay for identifying modulators of tubulin ligases” (University of Georgia Research Foundation, Inc., priority 2005, dated 2013)

What was measured:
Tetrahymena = conditions: cited from earlier work
[1] = system: cytoplasmic microtubules of wild-type Tetrahymena cells; assay: Stability of cell body microtubules against microtubule-destabilizing compounds, wild-type cells; assay type: cell-based, Tetrahymena thermophila; conditions: nocodazole 40 μM, oryzalin 10 μM, 30 min
Procedure: (§1) Immunofluorescence and electron microscopy. GFP-Ttll6Ap-expressing cells were grown in SPP with 0.5 to 2.5 μg of CdCl2/ml for 2 to 4 h. For GFP-Ttll6Ap localization, a 10-μl drop of cells was placed on a coverslip, followed by the addition of 20 μl of 2% paraformaldehyde in PHEM buffer (Schliwa and van Blerkom. 1981. J. Cell Biol. 90:222-235) and, after 20 s, the addition of 10 μl of 0.5% Triton X-100 in PHEM. The cells were subjected to immunofluorescence (Janke et al., 2005. Science 308:1758-1762) with the following primary antibodies: 12G10, an anti-α-tubulin monoclonal antibody (MAb) (Jerka-Dziadosz et al., 1995. Dev. Biol. 169:644-661) at 1:50; MAb ID5 (40), which in Tetrahymena is specific to polyglutamylated tubulin (Wloga et al., 2008. Eukaryot. Cell 7:1362-1372), at 1:50; poly(E) antipolyglutamic acid antibodies (1:100) (Shang et al., 2002. J. Cell Biol. 158:1195-1206); TAP952, an anti-monoglycylated tubulin MAb (1:5,000) (Bré et al., 1998. Mol. Biol. Cell 9:2655-2665; Callen et al., 1994. Biol. Cell 81:95-119); and 6-11 B-1, an anti-acetyl-K40 α-tubulin MAb (1:200) (LeDizet and Piperno. 1991.

[2] = system: cell body microtubules of GFP-Ttll6Ap-overexpressing Tetrahymena cells; assay: Stability of cell body microtubules against microtubule-destabilizing compounds, GFP-Ttll6Ap-overexpressing cells; assay type: cell-based, Tetrahymena thermophila; conditions: nocodazole 40 μM, oryzalin 10 μM, 30 min
Procedure: as §1

zebrafish embryos [3] = assay: Tubulin monoglycylation in cilia of zebrafish embryos (TAP952 immunofluorescence); assay type: in vivo
Source text: (§2) MO Knockdowns in Zebrafish Embryos. TTLL3-ATG MO (5′ […] 3′; SEQ ID NO:129) and TTLL3-SP MO (5′ […] 3; SEQ ID NO:130) were obtained from Open Biosystems (Huntsville, AL). TTLL3-ATG targets the translation initiation site of ttll3 mRNA. TTLL3-SP is predicted to prevent splicing of exon 11 and cause a frame shift in exon 12. This would eliminate the coding sequence downstream of exon 10, which includes a conserved catalytic domain-encoding region. To evaluate the effect of TTLL3-SP on ttll3 mRNA, total RNA was isolated with TRIzol reagent (Invitrogen, Inc., Carlsbad, Calif.) from embryos at 7 hpf: 50 uninjected control embryos, 40 embryos injected with 3 ng TTLL3-SP MO, or 30 embryos injected with 5 ng TTLL3-SP MO. Total RNA ([…]) was used as a template for cDNA synthesis with random hexamers and oligo-dT primers and the iScript TM cDNA synthesis kit (Bio-Rad Laboratories, Hercules, Calif.). cDNA ([…]) was amplified with the following primers spanning exon 11: TTLL3-splice F, 5′-[…]-3′ (exon 10; SEQ ID NO:131); TTLL3-splice R, 5′-[…]-3′ (exon 12; SEQ ID NO:132). As expected, primers flanking exon 11 produced a shorter product in RT-PCR from embryos injected with TTLL3-SP than in controls (FIG. 50D). […] As a negative control, we injected 25 base MOs with a random base mixture at each position (Gene Tools, Inc., Philomath, Oreg.).
(§3) Microscopy of Zebrafish. For whole-mount, in situ hybridization, embryos were fixed as previously described (Hagos and Dougan, 2007), stored in 100% methanol at −20° C., and stained with spaw, lefty1, lefty2, and cmlc2 probes (Yelon, 2001). Embryos were photographed under differential interference contrast with a Zeiss Axioplan 2 microscope with Slidebook (Intelligent Imaging Innovations, Denver, Colo.). For immunofluorescence, the embryos were manually dechorionated and fixed with 0.5% Triton X-100 and 4% paraformaldehyde in PBT (0.1% Tween-20 in PBS) at 4° C. overnight. After washing with PBT, embryos were dehydrated in methanol/PBT series and incubated overnight in 100% methanol at −20° C. After rehydration, embryos were blocked for 1-2 hr in 2% BSA, 0.5% normal goat serum,l%DMSO, 0.5% Triton X-100 in PBS, and incubated overnight at 4° C. with one of the following antibodies: 6-11 B-1 (1:1000); TAP952 (1:2000); AXO49 (1:2000); and GT335 (1:1000); polyE (1:500). After washing 3×10 min with 0.5% Triton X-100 in PBS, embryos were incubated overnight at 4° C. in anti-mouse-IgG-FITC or anti-rabbit-IgG-Cy3 (1:500; Zymed), washed (3×10 min), mounted in 100 mg/ml of DABCO (Sigma-Aldrich) in PBS, and examined on a Leica TCS SP confocal microscope.

zebrafish embryos [4] = assay: Morphology of zebrafish morphant embryos; conditions: in vivo
Source text: as §2

zebrafish embryos [5] = assay: Heart position in zebrafish embryos, scoring live embryos; assay type: in vivo
Source text: as §2

zebrafish embryos [6] = assay: Heart position in zebrafish embryos, in situ hybridization; assay type: in vivo
Source text: as §2, §3

zebrafish embryos [7] = assay: Expression pattern of lefty2 in zebrafish embryos (in situ hybridization); assay type: in vivo
Source text: as §2, §3

zebrafish embryos [8] = assay: Expression pattern of southpaw in zebrafish embryos (in situ hybridization); assay type: in vivo
Source text: as §2, §3

[9] = system: wild-type Tetrahymena cells; assay: Axoneme/cilium length in paclitaxel-treated wild-type cells (immunofluorescence); assay type: cell-based, Tetrahymena thermophila
Procedure: as §1, with “1991. Methods Enzymol. 196:264-274). The secondary goat antibodies were as follows: anti-mouse-FITC, anti-mouse-Cy3, anti-rabbit-Cy3, and anti-rabbit-Cy5 (Zymed) at 1:200 dilutions. Cells were viewed under either Leica TCS SP or Zeiss LSM 510 VIS/META confocal microscopes. […] Confocal images were recorded with a 0.8-μm distance between z-sections, and sets of two to four z-sections were merged. The lengths of the cilia were measured by using ImageJ 1.37. […]” for “1991.”
(§4) Immunofluorescence and Electron Microscopy of Tetrahymena. Immuno-fluorescence was done as previously described (Wloga et al., 2006. Mol. Biol. Cell 17, 2799-2810) and quantified using mixed mutant and WT cells (fed with India ink) imaged side by side. The average pixel intensity was determined for sections of axonemes from the base to below the tip using ImageJ. […] After washing, cells were dehydrated in an ethanol series, embedded in Epon, sectioned, and analyzed in a JEM 1210 electron microscope.

[10] = system: GFP-Ttll6Ap-overproducing Tetrahymena cells; assay: Cilium length in paclitaxel-treated GFP-Ttll6Ap-overproducing cells (immunofluorescence); assay type: cell-based, Tetrahymena thermophila; conditions: 40 μM paclitaxel for 3 h
Procedure: as §1, with “1991. Methods Enzymol. 196:264-274). The secondary goat antibodies were as follows: anti-mouse-FITC, anti-mouse-Cy3, anti-rabbit-Cy3, and anti-rabbit-Cy5 (Zymed) at 1:200 dilutions. Cells were viewed under either Leica TCS SP or Zeiss LSM 510 VIS/META confocal microscopes. To measure the length of the cilia, the cells were labeled with MAb 12G10, [and, in some experiments, double labeled with poly(E) antibodies]. Confocal images were recorded with a 0.8-μm distance between z-sections, and sets of two to four z-sections were merged. The lengths of the cilia were measured by using ImageJ 1.37. For transmission electron microscopy (TEM), the cells were prepared as described previously (Jerka-Dziadosz et al., 2001. Protist 152:53-67).” for “1991.”

3AB-KO Tetrahymena cells = assay: Axoneme elongation by paclitaxel in 3AB-KO cells (immunofluorescence); assay type: cell-based, Tetrahymena thermophila; conditions: 25 μM paclitaxel for 4 hr
Procedure: Cultures. Tetrahymena thermophila cells were grown in SPP medium. To determine the growth rate, cells were diluted to 10^4 cells/ml and grown in 10 ml of SPP in 150 ml flasks. In some experiments, paclitaxel (LC Laboratories, Woburn, Mass.) was added to the SPP medium. WT in Kalkutta and Tupfel longfin (commonly known as “WIK” and “TL”, respectively) zebrafish were raised at 28° C. at 14 hr light/10 hr dark cycle. The embryos were cultured in egg water at 28° C.
as §4, with “ImageJ. TEM was performed as previously described (Jerka-Dziadosz et al., 2001. Protist 152, 53-67). For immunoelectron TEM, cells were fixed as for immunofluorescence, reacted with anti-GFP antibodies (1:1000; Abcam) in 3% bovine serum albumin (BSA) in the PHEM buffer with 0.1% Tween-20 for 2 hr, followed by anti-rabbit IgG-10 nm gold antibodies (GE Healthcare) at 1:60 in 3% BSA in PBS for 1.5 hr.” for “ImageJ.”

[11] = GFP-Ttll6Ap-overexpressing cells

C[S+](C)[O-] [DMSO]
concentration tolerated well (Tetrahymena): up to 2.5%

COC(=O)Nc1nc2ccc(C(=O)c3cccs3)cc2[nH]1 [nocodazole]
effect on cytoplasmic microtubules [1]: rapid depolymerization of cytoplasmic microtubules
effect on cell body microtubules [2]: retained abundant cell body microtubules

TTLL3-ATG-MO: antisense morpholino 5′ GTGTTGGTGCATGTTTGAGTTAACC 3′; targets the translation initiation site of ttll3 mRNA (all phosphorodiamidate morpholino (PMO))
levels of tubulin monoglycylation/glycylation in cilia (zebrafish embryos [3]; 72 hpf, TTLL3-ATG MO 1 ng, TTLL3-SP MO 3 ng): greatly reduced
morphants with TAP952 signal not detected in cilia of the distal part of pronephric duct (zebrafish embryos [3]; n=46): 98%
morphants with TAP952 signal not detected in cilia of the medial part of pronephric duct (zebrafish embryos [3]; n=46): 61%
morphants with TAP952 signal not detected in cilia of the spinal cord (zebrafish embryos [3]; n=46): 89%
hydrocephalic morphants (zebrafish embryos [4]): 10%
morphant embryos with curly tail (zebrafish embryos [4]): 76%
heart position left, number of embryos (zebrafish embryos [5]): 56
heart position left, percent of embryos (zebrafish embryos [5]): 50%
heart position middle, number of embryos (zebrafish embryos [5]): 33
heart position middle, percent of embryos (zebrafish embryos [5]): 29.5%
heart position right, number of embryos (zebrafish embryos [5]): 23
heart position right, percent of embryos (zebrafish embryos [5]): (20.5%)
heart position left, number of embryos (zebrafish embryos [6]): 21
heart position left, percent of embryos (zebrafish embryos [6]): 50%
heart position middle, number of embryos (zebrafish embryos [6]): 7
heart position middle, percent of embryos (zebrafish embryos [6]): 16.7%
heart position right, number of embryos (zebrafish embryos [6]): 14
heart position right, percent of embryos (zebrafish embryos [6]): (33.3%)
lefty2 expression: Bilatera or midline, number of embryos (zebrafish embryos [7]): 5
lefty2 expression: Bilatera or midline, percent of embryos (zebrafish embryos [7]): (11.9%)
lefty2 expression: No specific signal, number of embryos (zebrafish embryos [7]): 8
lefty2 expression: No specific signal, percent of embryos (zebrafish embryos [7]): (19%)
lefty2 expression: left, number of embryos (zebrafish embryos [7]): 15
lefty2 expression: left, percent of embryos (zebrafish embryos [7]): (35.7%)
lefty2 expression: right, number of embryos (zebrafish embryos [7]): 14
lefty2 expression: right, percent of embryos (zebrafish embryos [7]): (33.4%)
southpaw expression: Bilatera or midline, number of embryos (zebrafish embryos [8]): 34
southpaw expression: Bilatera or midline, percent of embryos (zebrafish embryos [8]): (43.7%)
southpaw expression: No specific signal, number of embryos (zebrafish embryos [8]): 19
southpaw expression: No specific signal, percent of embryos (zebrafish embryos [8]): (24.3%)
southpaw expression: left, number of embryos (zebrafish embryos [8]): 14
southpaw expression: left, percent of embryos (zebrafish embryos [8]): (17.9%)
southpaw expression: right, number of embryos (zebrafish embryos [8]): 11
southpaw expression: right, percent of embryos (zebrafish embryos [8]): (14.1%)

CC(=O)O[C@H]1C(=O)[C@@]2(C)[C@H]([C@H](OC(=O)c3ccccc3)[C@]3(O)C[C@H](OC(=O)[C@H](O)[C@@H](NC(=O)c4ccccc4)c4ccccc4)C(C)=C1C3(C)C)[C@]1(OC(C)=O)CO[C@@H]1C[C@@H]2O [paclitaxel]
effect on axonemes ([9]; 25 μM paclitaxel for 4 hr): remarkable elongation of axonemes
increase of the average axoneme length ([9]; 40 μM paclitaxel for 3 h): 20%
axoneme length after treatment ([9]; 40 μM paclitaxel for 3 h, n=173): 6.05±1.12 μm
elongation of preexisting cilia [10, 11]: 22%
length of preexisting cilia, paclitaxel treated [10, 11]: 6.39±0.82 μm
length of assembling cilia, paclitaxel treated ([10]; GFP-Ttll6Ap-overproducing cells): 2.7±0.6 μm
change of length of assembling cilia ([10]; GFP-Ttll6Ap-overproducing cells, vs no drug): 44%
elongation of axonemes (3AB-KO Tetrahymena cells): not observed
